Test results reported in patent US10517889B2, “Modulators of SMAD7 expression” (Ionis Pharmaceuticals, Inc., priority 2017, dated 2019).
Strand notation (5' to 3'): a small letter for the sugar, then the base; units joined by * are phosphorothioate-linked, units joined directly phosphodiester-linked; [ ] holds rarer units or linkages, { } end groups; capitals alone tell only the bases. e = 2'-O-(2-methoxyethyl) (MOE); [5mC] = 5-methylcytosine; d = 2'-deoxy (DNA)

What was measured:
[1] = system: human SMAD7 mRNA; assay: Antisense inhibition of human SMAD7 mRNA expression in Hep3B cells by 5-10-5 MOE gapmers, single concentration, electroporation, RT-PCR (Example 1, Study 1 and 2); assay type: cell-based; conditions: for % Inhibition of SMAD7 mRNA: electroporation with 15,000 nM antisense oligonucleotide (Study 2)
Procedure, shortened: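 Readout is percent SMAD7 mRNA inhibition versus untreated cells, measured by qRT-PCR (RTS5062) and corrected for total RNA by RIBOGREEN. Oligonucleotide, 5,000 nM or 15,000 nM, was delivered by electroporation into Hep3B cells at 20,000 per well. RNA was collected about 24 h later.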

[2] = system: human SMAD7 mRNA; assay: Dose-dependent inhibition of human SMAD7 mRNA expression in Hep3B cells (Example 3, Study 1 and 2); assay type: cell-based; conditions: electroporation; for % inhibition of SMAD7 mRNA expression: approximately 16 hours; for IC50: Study 1 (312.5-20000 nM)
Procedure, shortened: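 Hep3B cells, 20,000 per well, electroporated with antisense oligonucleotide at 0.31, 1.25, 5.00 or 20.00 μM (first series) or 0.74, 2.22, 6.67 or 20.00 μM (second series). After ~16 h, SMAD7 mRNA measured by RT-qPCR (RTS5062), normalised to RIBOGREEN total RNA. Percent inhibition vs untreated cells; IC50 derived.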

[3] = Study 2, electroporation with 15,000 nM antisense oligonucleotide, 5-10-5 MOE gapmers targeting SEQ ID NO: 1 and 2
[4] = 312.5 nM, Study 1, relative to untreated control cells
[5] = 5-10-5 MOE gapmers targeting SEQ ID NO: 1 and 2
[6] = electroporation, 15,000 nM antisense oligonucleotide (Study 2), 5-10-5 MOE gapmers targeting SEQ ID NO: 1 and 2
[7] = electroporation, 15,000 nM, approximately 24 hours, relative to untreated control cells, gapmers targeting SEQ ID NO: 1 and 2

Row | Substance | % inhibition of SMAD7 mRNA expression [1, 3] | % inhibition of SMAD7 mRNA expression [2, 4] | % inhibition of SMAD7 mRNA expression ([2]; 1250.0 nM, Study 1) | % inhibition of SMAD7 mRNA expression ([2]; 5000.0 nM, Study 1) | % inhibition of SMAD7 mRNA expression ([2]; 20000.0 nM, Study 1) | IC50 [2] | % Inhibition of SMAD7 mRNA [1, 5] | % inhibition of SMAD7 mRNA expression [1, 6] | % Inhibition [1, 3] | % inhibition of SMAD7 mRNA expression ([1]; electroporation, 5,000 nM, approximately 24 hours, relative to untreated control cells, gapmers targeting SEQ ID NO: 1 and 2) | % inhibition of SMAD7 mRNA expression [1, 7]
1 | 771671 (antisense eT*e[5mC]*eA*eG*eG*dA*dG*dT*d[5mC]*d[5mC]*dT*dT*dT*d[5mC]*dT*e[5mC]*eT*e[5mC]*eT*e[5mC]) [compound 771671] | 69% | 0% | 9% | 27% | 49% | > 20 µM |  |  |  |  | 
2 | 771704 (antisense e[5mC]*eA*eG*eG*eA*dG*dG*dG*dT*dA*dT*dG*d[5mC]*dA*d[5mC]*eA*e[5mC]*eT*e[5mC]*eT) [compound 771704] |  | 14% | 19% | 30% | 54% | > 20 µM | 55% | 32% |  |  | 
3 | 771705 (antisense eA*eA*eT*eG*e[5mC]*d[5mC]*d[5mC]*dT*dT*dT*dG*dA*dG*dT*dT*eT*e[5mC]*e[5mC]*e[5mC]*e[5mC]) [compound 771705] |  | 0% | 0% | 0% | 9% |  |  | 52% |  |  | 
4 | 771711 (antisense e[5mC]*eG*e[5mC]*eA*e[5mC]*dT*dT*d[5mC]*dA*d[5mC]*dA*dG*dT*dT*d[5mC]*eA*e[5mC]*eA*eG*eG) [compound 771711] |  | 17% | 25% | 27% | 59% | 18 µM |  |  | 57% |  | 
5 | 771715 (antisense eA*eG*eT*e[5mC]*eT*d[5mC]*d[5mC]*dG*dA*dG*dT*dT*dA*dT*d[5mC]*e[5mC]*e[5mC]*e[5mC]*eA*eT) [compound 771715] |  | 7% | 18% | 42% | 49% | 17 µM |  |  | 67% | 68% | 
6 | 771717 (antisense eT*e[5mC]*e[5mC]*e[5mC]*eA*dT*d[5mC]*dT*dA*dT*d[5mC]*dG*dA*dA*dT*e[5mC]*eA*e[5mC]*e[5mC]*e[5mC]) [compound 771717] |  | 2% | 0% | 0% | 30% | > 20 µM |  |  |  |  | 57%
7 | 771732 (antisense eG*eT*e[5mC]*eA*eT*dG*dT*dG*dA*dA*d[5mC]*dA*d[5mC]*dT*d[5mC]*eT*eT*eT*e[5mC]*eA) [compound 771732] |  | 35% | 24% | 39% | 58% | 15 µM |  |  | 36% |  | 
8 | 771733 (antisense eT*eG*eA*e[5mC]*eA*dG*d[5mC]*d[5mC]*dA*d[5mC]*dA*dA*dG*dT*d[5mC]*eA*e[5mC]*eA*eA*e[5mC]) [compound 771733] |  | 0% | 0% | 26% | 61% | 16 µM |  |  |  |  | 75%
9 | 771734 (antisense e[5mC]*eT*e[5mC]*eA*eA*dA*d[5mC]*d[5mC]*dT*dT*dT*d[5mC]*dA*dG*dA*e[5mC]*e[5mC]*eA*eT*e[5mC]) [compound 771734] |  | 0% | 0% | 30% | 53% | > 20 µM |  |  | 64% |  | 
10 | 771737 (antisense eT*e[5mC]*eA*eA*eA*dT*dG*dA*dA*d[5mC]*d[5mC]*d[5mC]*dT*dG*dG*eT*eT*eA*eT*eA) [compound 771737] |  | 0% | 2% | 0% | 16% |  |  | 57% |  |  | 
11 | 771742 (antisense eA*eG*eA*e[5mC]*eA*dG*dA*dT*d[5mC]*dT*d[5mC]*dT*dG*dA*dA*eG*eT*e[5mC]*eA*eG) [compound 771742] |  | 0% | 0% | 0% | 23% | > 20 µM |  |  | 44% |  | 
12 | 771762 (antisense eG*eT*e[5mC]*eA*e[5mC]*d[5mC]*dA*d[5mC]*d[5mC]*dG*dA*dT*dG*d[5mC]*dA*eT*e[5mC]*e[5mC]*eA*eA) [compound 771762] |  | 0% | 0% | 38% | 67% |  |  | 72% |  |  | 
13 | 771769 (antisense eG*eG*e[5mC]*eT*eG*dG*dG*dA*dA*dT*d[5mC]*dA*dG*dA*dA*e[5mC]*eT*eT*eG*eG) [compound 771769] |  | 10% | 0% | 3% | 53% | > 20 µM |  | 71% |  |  | 
14 | 771770 (antisense e[5mC]*eT*eG*eT*eT*dG*dG*d[5mC]*dA*dG*dT*dG*d[5mC]*dT*d[5mC]*e[5mC]*e[5mC]*eA*e[5mC]*e[5mC]) [compound 771770] |  | 0% | 11% | 27% | 51% | > 20 µM |  | 61% |  |  | 
15 | 771773 (antisense eT*e[5mC]*eT*eT*eT*dT*d[5mC]*dG*d[5mC]*dA*dT*d[5mC]*d[5mC]*dT*d[5mC]*eA*eG*eG*eA*eA) [compound 771773] |  | 0% | 0% | 0% | 42% | > 20 µM |  |  |  |  | 57%
16 | 771776 (antisense e[5mC]*eT*e[5mC]*eA*eG*d[5mC]*dA*dA*dG*d[5mC]*dT*d[5mC]*dA*dG*dT*eT*e[5mC]*e[5mC]*eT*eG) [compound 771776] |  | 10% | 13% | 36% | 67% | 9 µM | 54% | 38% |  |  | 
17 | 771777 (antisense e[5mC]*e[5mC]*e[5mC]*eT*e[5mC]*dA*dG*dT*d[5mC]*dT*d[5mC]*dA*dG*dA*dT*eA*eA*e[5mC]*eA*eG) [compound 771777] |  | 0% | 0% | 27% | 50% | 8 µM |  | 50% |  |  | 
18 | 771778 (antisense eT*eG*eA*eG*eT*dA*dA*dA*d[5mC]*dA*dA*dT*dA*d[5mC]*d[5mC]*e[5mC]*eT*e[5mC]*eA*eG) [compound 771778] |  | 48% | 0% | 37% | 55% | > 20 µM |  | 66% |  |  | 
